Format in all cases: biochemical
For assay [1], the target named is T1, rhBACE-1 β-Secretase recombinant human (Homo sapiens, UniProt P56817).
T1 construct: purchased R&D Systems 931-AS
The experiment in a line: BACE assay (FRET, fluorogenic peptide substrate). Conditions: for % BACE Activity: percentage of the enzyme activity (remaining). From the text: The aim of this assay is to determine if a compound, either synthetic or of marine origin, is a BACE-1 inhibitor, to avoid the formation of Aβ. This assay is based on FRET technology (Fluorescence Resonance Energy Transfer). FRET is used to measure cleavage of a peptide substrate, among other uses. […] When a substrate peptide cleavage occurs, the energy balance is broken and all the donor fluorescence can be observed. The increase in fluorescence is linearly related to the rate of proteolysis (Gordon, G W et al., 1998). In this assay the reaction occurs between an enzyme, purified BACE-1, and a fluorogenic peptidic substrate who present the “Swedish mutation”. The peptide cleavage by BACE-1 produces fluorescence energy and enzymatic activity can be quantified.
The reagents which are used in this assay are the following:
rhBACE-1 β-Secretase recombinant human (R&D Systems. Ref. 931-AS).
Fluorogenic Peptide Substrate IV (R&D Systems. Ref. ES004).
Beta-SECRETASE INHIBITOR H-4848. (BACHEM. Ref. H-4848.0001).
The assay is carried out in a 96 wells microplate. The final concentration of substrate is 3.5 μM per well, and the enzyme concentration is 0.5 μg/ml. The final volume of the assay is 100 μl per well and all reagents are diluted in Reaction Buffer.
The compounds are tested at a concentration of 10^−5 and 10^−6 M. The control in the assay is the commercial inhibitor β-Secretase inhibitor H-4848 from BACHEM, which is tested at 300 nM. All the samples and controls are studied by duplicate.
The plate is mixed gently and changes in the fluorescence are measured using a fluorimeter plate reader, with 320 nm excitation filter and 405 nm emission filter. The temperature should be preferably maintained between 25 and 30° C. Measurements are carried out every ten minutes during an hour. The first measure is subtracted from the last to calculate the fluorescence increase, evaluating the enzymatic activity. The 100% activity is calculated as the mean of the results of wells without sample or inhibitor.
In the cases where abnormal effects in fluorescence were detected, BACE inhibition activity was assayed using BACE-1 (beta-Secretase) FRET ASSAY KIT (Invitrogen, Ref. P2985). Fluorescence was measured with a fluorimeter plate reader, with 544 nm excitation filter and 580 nm emission filter.
Further information regarding this assay may be found in the following references, which are incorporated by reference into the present application: • Andrau, D et al; “BACE1- and BACE2-expressing human cells: characterization of beta-Amyloid precursor protein-derived catabolites, design of a novel fluorimetric assay, and identification of new in vitro inhibitors”. J Biol Chem. 2003 Jul. 11; 278(28):25859-66. • Gordon, G W et al; “Quantitative fluorescence resonance energy transfer measurements using fluorescence microscopy.” Biophys J. 1998 May; 74:2702-13.
The compounds of formula (I) of the present invention where submitted to the above indicated assay, in order to determine their BACE activity inhibition. The results are indicated in Table I, in percentage of the enzyme activity.

The target in assay [2] is T2, Recombinant human glycogen synthase kinase 3 beta (Homo sapiens, UniProt P49841). Kind of assay: GSK-3 beta inhibition assay (33P-ATP, GS-2 peptide). The following applies: 0.5 h, percentage of the enzyme activity (remaining), read-out: % Act. GSK-3 beta; for remaining activity at 25 µM: compound at 25 μM; for remaining activity at 50 µM: compound at 50 μM. The procedure: The GSK-3 beta activity of the compounds of formula (I) according to the present invention was determined by incubation of a mixture of recombinant human GSK-3 enzyme, a phosphate source and GSK-3 substrate in the presence and in the absence of the corresponding test compound, and by measuring the GSK-3 activity of this mixture. The compounds where tested at final concentrations of 25 and 50 μM.
T2 sequence (P49841 whole entry): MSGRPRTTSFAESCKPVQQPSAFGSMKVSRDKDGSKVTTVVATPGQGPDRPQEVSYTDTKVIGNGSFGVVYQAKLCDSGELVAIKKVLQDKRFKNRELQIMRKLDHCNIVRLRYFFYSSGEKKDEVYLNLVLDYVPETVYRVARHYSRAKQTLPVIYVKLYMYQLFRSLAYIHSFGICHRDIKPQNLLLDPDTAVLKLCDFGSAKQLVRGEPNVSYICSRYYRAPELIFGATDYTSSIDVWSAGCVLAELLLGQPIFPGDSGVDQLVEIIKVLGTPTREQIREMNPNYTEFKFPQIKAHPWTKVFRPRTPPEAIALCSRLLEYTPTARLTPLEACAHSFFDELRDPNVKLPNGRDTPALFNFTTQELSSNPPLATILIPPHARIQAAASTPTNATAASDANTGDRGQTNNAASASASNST
Recombinant human glycogen synthase kinase 3 beta was assayed in MOPS 11 mM, pH 7.4, EDTA 0.2 mM, EGTA 1.25 mM, MgCl2 26.25 mM and sodium orthovanadate 0.25 mM in the presence of 62.5 μM of Phospho-Glycogen Synthase Peptide-2 (GS-2), 0.5 μCi gamma-^33P-ATP and unlabelled ATP at a final concentration of 12.5 μM. The final assay volume was 20 μl. After incubation for 30 minutes at 30° C., 15 μl aliquots were spotted onto P81 phosphocellulose papers. Filters were washed four times for at least 10 minutes each and counted with 1.5 ml of scintillation cocktail in a scintillation counter.
The compounds of formula (I) of the present invention where submitted to the above indicated assay, in order to determine their GSK-3 inhibition activity. The results are indicated in Table II, in percentage of the enzyme activity.

Assay [3] has as its target T2, Recombinant human glycogen synthase kinase 3 beta. Described as above.

The IC50 is the point on the concentration scale where inhibition reaches its midpoint.

T1 sequence (P56817 46-457 limits assumed): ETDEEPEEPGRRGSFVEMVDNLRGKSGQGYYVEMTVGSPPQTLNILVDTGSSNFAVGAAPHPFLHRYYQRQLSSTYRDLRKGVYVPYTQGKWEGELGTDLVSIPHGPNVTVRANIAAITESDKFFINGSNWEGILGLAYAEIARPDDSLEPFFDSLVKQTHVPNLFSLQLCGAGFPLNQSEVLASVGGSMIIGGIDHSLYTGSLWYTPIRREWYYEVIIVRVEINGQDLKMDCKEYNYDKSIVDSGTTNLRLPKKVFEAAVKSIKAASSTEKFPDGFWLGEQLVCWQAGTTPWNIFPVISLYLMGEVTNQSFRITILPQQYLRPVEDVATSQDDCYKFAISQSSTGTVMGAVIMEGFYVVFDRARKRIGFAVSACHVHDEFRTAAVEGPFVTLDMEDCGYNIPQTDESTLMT

On to `CC(=O)Oc1ccc(C(=O)O)cc1C/C=C(\C)CC/C=C(\C)CC/C=C(\C)CCC=C(C)C` [Compound 19], for which the IC50 in assay [1] came to 20.5 ± 2.8 µM; in assay [3], 2.77 µM. The “% BACE Activity” value in assay [1] (compound at 1 μM) amounted to 87 ± 14.5%; in assay [1] (compound at 10 μM) it was 17.5 ± 0.7%. Besides, the remaining activity at 25 µM in assay [2] was 10.7%. Also, the remaining activity at 50 µM in assay [2] turned out to be 4.58%.

As for `COCOC(=O)c1ccc(O)c(C/C=C(\C)CC/C=C(\C)CC/C=C(\C)CCC=C(C)C)c1` [Compound 25], the “% BACE Activity” value in assay [1] (compound at 1 μM) and in assay [1] (compound at 10 μM) was 100% throughout. Also, the remaining activity at 25 µM in assay [2] worked out at 9.18%. The remaining activity at 50 µM in assay [2] worked out at 4.5%. Also, the IC50 in assay [3] was determined as 22 µM.

In the case of `COCOc1ccc(C(=O)O)cc1C/C=C(\C)CC/C=C(\C)CCC=C(C)C` [Compound 28], the “% BACE Activity” value in assay [1] (compound at 1 μM) is recorded as 87 ± 10%. Further, the “% BACE Activity” value in assay [1] (compound at 10 μM) stood at 33 ± 7%. In addition, in assay [2], the remaining activity at 25 µM was determined as 17.1% and the remaining activity at 50 µM turned out to be 2.44%. The IC50 in assay [3] was found to be 18 µM.

Source of the values: patent publication US20110092591A1, “PHENYL-PRENYL DERIVATIVES, OF MARINE AND SYNTHETIC ORIGIN, FOR THE TREATMENT OF COGNITIVE, NEURODEGENERATIVE OR NEURONAL DISEASES OR DISORDERS” (NOSCIRA S.A., priority 2008, published 2011).
